Measured values taken from US8129396B2, “2-[1H-benzimidazol-2(3H)-ylidene]-2-(pyrimidin-2-yl)acetamides and 2-[benzothiazol-2(3H)-ylidene]-2-(pyrimidin-2-yl)acetamides as kinase inhibitors” (Telik, Inc., priority 2008, dated 2012).

How the values were obtained:
VEGFR2 kinase = biological target: T1, VEGFR2 kinase (Homo sapiens, UniProt P35968); test: VEGFR2 kinase assay; type: biochemical; conditions: 6 μM ATP, 1 mM MnCl2; rounded to 1 significant figure
T1 construct: purchased Cell Signaling Technology
Outline: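 VEGFR2 phosphorylates CSKtide with 6 μM ATP and 1 mM MnCl2 for 1 hr, otherwise following the Aurora A kinase protocol. Detection by IMAP fluorescence polarization, binding reagent diluted 1:1200 in 1:1 binding buffer A/B. Run in duplicate with solvent control.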

[1] = system: HCT116 (human colon carcinoma) cells; test: HCT116 cytotoxicity assay (CellTiter-Glo); type: cell-based; conditions: HCT-116, 72 h, cytotoxicity, three days culture, read-out: HCT116 IC50
p-H3 in HCT116 cells = test: Histone phosphorylation (p-H3) assay; type: cell-based; conditions: Homo sapiens, HCT-116; HCT116 cells, 4 hr incubation; read-out: p-H3 IC50
Outline: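 HCT116 cells (2.5×10^4/well, attached overnight) treated 4 h with 8-point 3-fold compound dilutions at 0.5% DMSO. Lysates dot-blotted onto nitrocellulose and probed for p-H3 with β-actin on the same membrane, fluorescent secondary antibodies, Odyssey scan; duplicate wells.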

Aurora B kinase = biological target: T2, Aurora B kinase (Homo sapiens, UniProt Q96GD4); test: Aurora B kinase assay (IMAP fluorescence polarization); type: biochemical; conditions: 10 μM ATP; rounded to 1 significant figure; read-out: Aur-B IC50
T2 construct: purchased BPS Bioscience
Outline: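 Reaction started with 100 nM fluorescein-labelled PKAtide and 10 μM ATP, run 45 min at room temperature, then stopped with IMAP binding reagent (1:400). After 30 min shaking at room temperature, fluorescence polarization read; run in duplicate with solvent control.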

Aurora A kinase = biological target: T3, Aurora A kinase (Homo sapiens, UniProt O14965); test: Aurora A kinase assay (IMAP fluorescence polarization); type: biochemical; conditions: 10 μM ATP; rounded to 1 significant figure; read-out: Aur-A IC50
T3 construct: purchased Upstate Biotech
T3 sequence (O14965 1-403): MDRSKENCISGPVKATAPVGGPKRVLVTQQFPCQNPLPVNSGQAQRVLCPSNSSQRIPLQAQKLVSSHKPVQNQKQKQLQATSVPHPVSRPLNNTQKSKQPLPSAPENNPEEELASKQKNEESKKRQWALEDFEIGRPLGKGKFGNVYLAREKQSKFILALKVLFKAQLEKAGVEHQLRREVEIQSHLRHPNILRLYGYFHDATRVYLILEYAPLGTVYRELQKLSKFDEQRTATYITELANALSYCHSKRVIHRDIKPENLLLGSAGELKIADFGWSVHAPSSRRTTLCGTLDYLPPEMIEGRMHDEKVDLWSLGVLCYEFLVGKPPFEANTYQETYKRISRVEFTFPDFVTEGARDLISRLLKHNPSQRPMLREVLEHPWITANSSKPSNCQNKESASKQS
Outline: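 Compounds (eight 3-fold dilutions, 2.5% DMSO final) were preincubated 5 min at room temperature with Aurora A kinase in buffer with 1 mM DTT. Reaction with 100 nM fluorescein-PKAtide and 10 μM ATP ran 45 min at room temperature, then was stopped with IMAP binding reagent; fluorescence polarization was read after 30 min.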

[2] = system: HL60 (human promyelocytic leukemia) xenograft; test: HL60 xenograft assay, oral administration; type: in vivo, athymic nu/nu mice; conditions: for inhibition of tumor growth compared to vehicle: 150 mg/Kg by gavage once/day on days 1-5 and 8-10, measured 1-2 days after last treatment
Protocol: Male athymic nu/nu mice, 6-8 weeks old (about 20 g), were implanted subcutaneously in the right fore flank with about 1×10^7 cells of the HL60 (human promyelocytic leukemia) line that had been grown in antibiotic-free medium for at least two passages. About 6 days after tumor implantation, when the tumor weight was about 50-250 mg, the mice were assigned to treatment groups. […] […] Tumor growth inhibition was measured 1-2 days after the last day of treatment.

[3] = system: HUVEC-2 (human umbilical vein endothelial cells); test: HUVEC VEGF-dependent proliferation assay (BrdU); type: cell-based; conditions: VEGF (25 ng/mL)-dependent proliferation, read-out: HUVEC IC50
Outline: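 HUVEC-2 cells on gelatin got serially diluted compound (0.5% DMSO final), and VEGF (25 ng/mL) was added 2 hr later. BrdU (10 μM) went in after one day, with labelling for another day. VEGF-dependent proliferation was read by BrdU detection, in triplicate.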

[4] = system: HCT116 (human colon carcinoma) xenograft; test: HCT116 xenograft assay, oral administration; type: in vivo, athymic nu/nu mice; conditions: for inhibition of tumor growth compared to vehicle: 150 mg/Kg by gavage once/day on days 1-5 and 8-12, measured 9 days after last treatment
Protocol: Male athymic nu/nu mice, 6-8 weeks old (about 20 g), were implanted subcutaneously in the right fore flank with about 1×10^7 cells of the HCT116 (human colon carcinoma) line that had been grown in antibiotic-free medium for at least two passages. About 14-21 days after tumor transplantation, when the tumor weight was about 50-250 mg, the mice were assigned to treatment groups. […] Groups of mice were treated with compounds 39A, 40A, 60A, 75A, 95A, and 117A at 150 mg/Kg by gavage once/day on days 1-5 and 8-12 from the start of treatment, with vehicle control. Tumor growth inhibition was measured 9 days after the last day of treatment.

[5] = system: HL60 (human promyelocytic leukemia) cells; test: HL60 cytotoxicity assay (CellTiter-Glo); type: cell-based; conditions: HL-60, 72 h, cytotoxicity, three days culture, read-out: HL60 IC50
Aurora kinase C = biological target: T4, Aurora kinase C (Homo sapiens, UniProt Q9UQB9); conditions: reported; cited from earlier work
T4 sequence (Q9UQB9 1-309): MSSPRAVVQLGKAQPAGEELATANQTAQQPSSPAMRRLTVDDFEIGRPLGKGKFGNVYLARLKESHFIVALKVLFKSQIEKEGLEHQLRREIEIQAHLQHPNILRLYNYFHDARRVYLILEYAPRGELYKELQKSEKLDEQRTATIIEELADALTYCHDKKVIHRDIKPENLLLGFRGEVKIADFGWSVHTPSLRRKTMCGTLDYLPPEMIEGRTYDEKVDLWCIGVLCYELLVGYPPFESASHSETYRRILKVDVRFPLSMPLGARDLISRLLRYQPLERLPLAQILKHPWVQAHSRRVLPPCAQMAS

[6] = dissolved at 10 mg/mL in 0.1M sodium acetate pH5

T1 sequence (P35968 20-1356): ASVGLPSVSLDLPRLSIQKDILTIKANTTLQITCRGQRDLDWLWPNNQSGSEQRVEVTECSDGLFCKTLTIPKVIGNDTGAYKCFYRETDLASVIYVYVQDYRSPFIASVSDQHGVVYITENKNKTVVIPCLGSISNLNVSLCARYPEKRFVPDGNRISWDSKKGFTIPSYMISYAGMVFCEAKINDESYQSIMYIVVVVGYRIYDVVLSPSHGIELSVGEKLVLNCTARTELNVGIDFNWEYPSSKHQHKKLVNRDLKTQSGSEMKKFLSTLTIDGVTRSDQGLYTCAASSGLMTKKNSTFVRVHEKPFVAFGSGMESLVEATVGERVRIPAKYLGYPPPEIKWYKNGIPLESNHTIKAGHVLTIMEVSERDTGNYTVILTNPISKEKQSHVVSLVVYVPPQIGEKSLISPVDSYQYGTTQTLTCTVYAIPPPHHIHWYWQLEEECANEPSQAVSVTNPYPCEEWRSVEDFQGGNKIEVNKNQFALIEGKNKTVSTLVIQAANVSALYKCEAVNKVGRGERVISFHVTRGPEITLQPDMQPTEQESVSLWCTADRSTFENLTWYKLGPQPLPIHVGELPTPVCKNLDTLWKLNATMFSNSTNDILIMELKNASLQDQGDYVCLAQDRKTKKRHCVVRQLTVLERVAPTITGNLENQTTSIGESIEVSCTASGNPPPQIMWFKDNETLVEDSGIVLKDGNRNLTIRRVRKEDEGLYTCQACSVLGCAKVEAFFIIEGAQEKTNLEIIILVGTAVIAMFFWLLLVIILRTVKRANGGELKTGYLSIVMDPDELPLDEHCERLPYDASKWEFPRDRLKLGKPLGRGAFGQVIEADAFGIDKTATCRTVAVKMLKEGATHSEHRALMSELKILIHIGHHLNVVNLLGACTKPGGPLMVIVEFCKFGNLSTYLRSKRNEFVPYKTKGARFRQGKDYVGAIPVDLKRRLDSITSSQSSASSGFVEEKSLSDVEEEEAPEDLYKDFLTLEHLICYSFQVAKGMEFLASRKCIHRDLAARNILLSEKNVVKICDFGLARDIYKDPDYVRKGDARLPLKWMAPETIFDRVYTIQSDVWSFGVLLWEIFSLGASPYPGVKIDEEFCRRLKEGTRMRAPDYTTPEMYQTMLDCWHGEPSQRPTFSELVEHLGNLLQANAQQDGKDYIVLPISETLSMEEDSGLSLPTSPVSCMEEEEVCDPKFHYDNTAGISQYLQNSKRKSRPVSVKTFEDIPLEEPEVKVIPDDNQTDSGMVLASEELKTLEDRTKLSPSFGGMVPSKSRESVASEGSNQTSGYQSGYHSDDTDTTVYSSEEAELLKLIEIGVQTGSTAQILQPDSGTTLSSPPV
T2 sequence (Q96GD4 whole entry): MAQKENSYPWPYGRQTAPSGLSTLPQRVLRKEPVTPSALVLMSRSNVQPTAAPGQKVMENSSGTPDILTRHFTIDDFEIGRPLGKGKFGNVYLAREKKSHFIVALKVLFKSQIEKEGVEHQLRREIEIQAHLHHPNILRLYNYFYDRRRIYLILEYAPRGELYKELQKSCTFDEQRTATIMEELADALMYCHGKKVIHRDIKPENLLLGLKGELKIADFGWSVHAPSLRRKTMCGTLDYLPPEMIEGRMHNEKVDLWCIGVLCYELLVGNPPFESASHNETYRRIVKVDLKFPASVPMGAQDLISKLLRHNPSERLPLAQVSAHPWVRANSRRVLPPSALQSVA

| Compound | IC50 (VEGFR2 kinase) | IC50 [1] | IC50 (p-H3 in HCT116 cells) | IC50 (Aurora B kinase) | IC50 (Aurora A kinase) | inhibition of tumor growth compared to vehicle [2] | IC50 [3] | inhibition of tumor growth compared to vehicle [4] | IC50 [5] | tumor inhibition relative to vehicle ([2]; dissolved at 4 mg/mL in 0.1M sodium acetate pH5, dosing at 40 mg/mL) | tumor inhibition relative to vehicle ([4]; dissolved at 4 mg/mL in 0.1M sodium acetate pH5) | tumor inhibition relative to vehicle [2, 6] | IC50 (Aurora kinase C) |
| --- | --- | --- | --- | --- | --- | --- | --- | --- | --- | --- | --- | --- | --- |
| CCN(CC)CC(=O)Nc1ccc2c(c1)N/C(=C(/C(N)=O)c1nccc(C(F)(F)F)n1)N2 [Compound 75A] | 50 nM | 1000 nM | 400 nM | 10 nM | 60 nM | 72% | 200 nM | 60% | – | – | – | – | – |
| NC(=O)C(=C1Nc2ccc(C(=O)NCCCN3CCOCC3)cc2N1)c1nccc(C(F)(F)F)n1 (single isomer, unassigned) [Compound 39A, 2-(5-{[3-(4-morpholinyl)propyl]aminocarbonyl}-1H-benzimidazol-2(3H)-ylidene)-2-(4-trifluoromethylpyrimidin-2-yl)acetamide] | 7 nM | 300 nM | 900 nM | 5 nM | 10 nM | 47% | 60 nM | 56% | 500 nM | – | – | – | – |
| NC(=O)/C(=C1\Nc2ccc(C(=O)N3CCNCC3)cc2N1)c1nccc(C(F)(F)F)n1 [Compound 60A] | 5 nM | 200 nM | 200 nM | 7 nM | 10 nM | – | 80 nM | 37% | – | – | – | – | – |
| NC(=O)/C(=C1\Nc2ccc(CCN3CCOCC3)cc2S1)c1nccc(C(F)(F)F)n1 [Compound 101A] | 20 nM | 1000 nM | 1000 nM | 9 nM | 7 nM | 38% | 50 nM | – | 2000 nM | – | – | – | – |
| NC(=O)/C(=C1\Nc2ccc(CCn3ccnc3)cc2S1)c1nccc(C(F)(F)F)n1 [Compound 95A] | 20 nM | 2000 nM | 50 nM | 4 nM | 20 nM | 59% | 50 nM | 61% | 2000 nM | – | – | – | – |
| NC(=O)C(=C1Nc2ccc(C(=O)NCCCN3CCOCC3)cc2S1)c1nccc(C(F)(F)F)n1 (single isomer, unassigned) [Compound 40A, 2-(6-{[3-(4-morpholinyl)propyl]aminocarbonyl}-benzothiazol-2(3H)-ylidene)-2-(4-trifluoromethylpyrimidin-2-yl)acetamide] | 3 nM | 200 nM | 500 nM | 7 nM | 3 nM | – | 30 nM | 18% | 7000 nM | – | – | – | – |
| CCN(CC)CC(=O)N(CC)c1ccc2c(c1)N/C(=C(/C(N)=O)c1nccc(C(F)(F)F)n1)N2 [Compound 139A] | 30 nM | 30 nM | 90 nM | 2 nM | 20 nM | – | – | – | 40 nM | 65% | 46% | – | – |
| NC(=O)C(=C1Nc2ccc(OCCn3ccnc3)cc2S1)c1nccc(C(F)(F)F)n1 (single isomer, unassigned) [Compound 117A, 2-{6-[2-(1H-imidazol-1-yl)ethoxy]benzothiazol-2(3H)-ylidene}-2-(4-trifluoromethylpyrimidin-2-yl)acetamide] | 20 nM | 800 nM | 300 nM | 8 nM | 10 nM | – | 60 nM | 42% | – | – | – | – | – |
| CN1CCCC[C@@H]1C(=O)Nc1ccc2c(c1)N/C(=C(/C(N)=O)c1nccc(C(F)(F)F)n1)N2 [Compound 143A] | 30 nM | 300 nM | 200 nM | 6 nM | 4 nM | – | 80 nM | – | 300 nM | – | – | 65% | – |
| CCN(CCCN1CCOCC1)C(=O)c1ccc2c(c1)N/C(=C(/C(N)=O)c1nccc(C(F)(F)F)n1)N2 [Compound 41A] | 4 nM | 700 nM | 100 nM | 4 nM | 6 nM | 81% | 200 nM | – | 100 nM | – | – | – | – |
| Cc1nc(N)sc1-c1ccnc(Nc2ccc(N3CCOCC3)cc2)n1 [CYC116] | – | – | – | – | – | – | – | – | – | – | – | – | < 100 nM |
| CN1CCC[C@H]1C(=O)Nc1ccc2c(c1)N/C(=C(/C(N)=O)c1nccc(C(F)(F)F)n1)N2 [Compound 77A] | 9 nM | 200 nM | 100 nM | 7 nM | 8 nM | 75% | 90 nM | – | 300 nM | – | – | – | – |
| CN1CCCC[C@H]1C(=O)Nc1ccc2c(c1)N/C(=C(/C(N)=O)c1nccc(C(F)(F)F)n1)N2 [Compound 142A] | 10 nM | 300 nM | 300 nM | 4 nM | 2 nM | – | 90 nM | – | 200 nM | – | – | 89% | – |
